Measurements: patent publication US20150105252A1, “SUBSTITUTED PYRAZOLES AS HERBICIDES” (E I DU PONT DE NEMOURS AND COMPANY, priority 2013, published 2015)

Key:
morningglory = assay: Test A preemergence; assay type: in vivo, Ipomoea spp.; settings: preemergence; for Morningglory plant response rating (0 to 100 scale): 125 g ai/ha, visual injury approx. 10 days after treatment; for Morningglory plant response rating: 500 g ai/ha, visual injury after approx. 10 days, 0 to 100 scale (0 no effect, 100 complete control)
Method in brief: (§1)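 Both timings tested concurrently in loam/sand soil: preemergence by directed soil spray, postemergence on plants of 2–10 cm at the one- to two-leaf stage. Greenhouse holding period was approximately 10 days before visual injury assessment (0–100, 0 = no effect).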

barnyardgrass [1] = assay: Test A postemergence; assay type: in vivo, Echinochloa crus-galli
Method in brief: as §1

ducksalad = assay: Test B flood; assay type: in vivo, Heteranthera limosa; settings: 250 g ai/ha, visual rating on 0 to 100 scale (0 no effect, 100 complete control), 13 to 15 days
Method in brief: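 Greenhouse assay lasting 13 to 15 days. Treatment was into water flooding pots 3 cm deep, at the 2-leaf stage, with that level sustained afterwards. Scores compare treated with control plants visually, 100 denoting complete control and 0 no effect; a dash marks no test result.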

blackgrass = assay: Test C preemergence; assay type: in vivo, Alopecurus myosuroides; settings: preemergence; for Plant response rating, Blackgrass: 125 g ai/ha, scale 0 to 100, 0 = no effect, 100 = complete control
Method in brief: (§2)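 In this greenhouse assay, seeded soil (loam plus sand) or emerged seedlings in peat-vermiculite medium were treated with formulated compound. Roughly two weeks later (13–15 days), each species was scored visually relative to controls, from 0 for no effect to 100 for complete control.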

johnsongrass = assay: Test C preemergence; assay type: in vivo, Sorghum halepense; settings: preemergence; for Plant response rating, Johnsongrass: 125 g ai/ha, scale 0 to 100, 0 = no effect, 100 = complete control
Method in brief: as §2

lambsquarters = assay: Test C preemergence; assay type: in vivo, Chenopodium album; settings: preemergence; for Plant response rating, Lambsquarters: 125 g ai/ha, scale 0 to 100, 0 = no effect, 100 = complete control
Method in brief: as §2

soybean = assay: Test C preemergence; assay type: in vivo, Glycine max; settings: preemergence; for Plant response rating, Soybean: 125 g ai/ha, scale 0 to 100, 0 = no effect, 100 = complete control
Method in brief: as §2

barnyardgrass [2] = assay: Test C preemergence; assay type: in vivo, Echinochloa crus-galli; settings: preemergence; for Plant response rating, Barnyardgrass: 125 g ai/ha, scale 0 to 100, 0 = no effect, 100 = complete control
Method in brief: as §2

ryegrass, Italian = assay: Test C postemergence; assay type: in vivo, Lolium multiflorum; settings: postemergence
Method in brief: as §2

corn = assay: Test C postemergence; assay type: in vivo, Zea mays; settings: for Plant response rating (scale of 0 to 100 where 0 is no effect and 100 is complete control), Corn: Postemergence, 31 g ai/ha, visually evaluated after 13 to 15 days; for Corn plant response rating / Plant response rating, Corn: postemergence; for Corn plant response rating: 62 g ai/ha, scale 0 to 100
Method in brief: as §2

crabgrass, large = assay: Test C postemergence; assay type: in vivo, Digitaria sanguinalis; settings: for Plant response rating (scale of 0 to 100 where 0 is no effect and 100 is complete control), Crabgrass, Large: Postemergence, 31 g ai/ha, visually evaluated after 13 to 15 days; for Crabgrass, Large plant response rating / Plant response rating, Crabgrass, Large: postemergence; for Crabgrass, Large plant response rating: 62 g ai/ha, scale 0 to 100
Method in brief: as §2

pigweed = assay: Test C postemergence; assay type: in vivo, Amaranthus retroflexus; settings: postemergence; for Pigweed plant response rating: 62 g ai/ha, scale 0 to 100
Method in brief: as §2

chickweed = assay: Test C postemergence; assay type: in vivo, Stellaria media; settings: for Plant response rating (scale of 0 to 100 where 0 is no effect and 100 is complete control), Chickweed: Postemergence, 31 g ai/ha, visually evaluated after 13 to 15 days; for Chickweed plant response rating / Plant response rating, Chickweed: postemergence; for Chickweed plant response rating: 62 g ai/ha, scale 0 to 100
Method in brief: as §2

[3] = Postemergence, 500 g ai/ha, 0 to 100 scale (0 no effect, 100 complete control)
[4] = postemergence, 125 g ai/ha, about 10 days, visual rating on 0 to 100 scale (0 no effect, 100 complete control)
[5] = 31 g ai/ha, visual rating, scale 0 to 100 (0 no effect, 100 complete control), 13 to 15 days
[6] = 62 g ai/ha, scale 0 to 100 (0 no effect, 100 complete control), 13 to 15 days
[7] = 250 g ai/ha, scale 0 to 100, 0 is no effect, 100 is complete control
[8] = 250 g ai/ha, scale 0 to 100 (0 no effect, 100 complete control)
[9] = 125 g ai/ha, scale 0 to 100, 0 no effect, 100 complete control

## CCCc1cc(C(=O)NC(C)C)nn1Cc1ccnc(C(F)(F)F)c1 [Compound 186]
morningglory
  Morningglory plant response rating (0 to 100 scale): 100
  Morningglory plant response rating: 100
Barnyardgrass [1]; [3]
  Barnyardgrass plant response rating: 90
Barnyardgrass [1]; [4]
  Barnyardgrass plant response rating: 90
ducksalad
  Plant response rating, Ducksalad: 80
blackgrass; [5]
  Blackgrass plant response rating: 85
blackgrass; [6]
  Blackgrass plant response rating: 90
blackgrass; 13 to 15 days
  Plant response rating, Blackgrass: 90
blackgrass; [7]
  Blackgrass plant response rating: 90
johnsongrass; [5]
  Johnsongrass plant response rating: 75
johnsongrass; [6]
  Johnsongrass plant response rating: 98
johnsongrass; 13 to 15 days
  Plant response rating, Johnsongrass: 100
johnsongrass; [7]
  Johnsongrass plant response rating: 100
lambsquarters; [5]
  Lambsquarters plant response rating: 100
lambsquarters; [6]
  Lambsquarters plant response rating: 100
lambsquarters; 13 to 15 days
  Plant response rating, Lambsquarters: 100
lambsquarters; [7]
  Lambsquarters plant response rating: 100
soybean; [5]
  Soybean plant response rating: 85
soybean; [6]
  Soybean plant response rating: 65
soybean; 13 to 15 days
  Plant response rating, Soybean: 98
soybean; [7]
  Soybean plant response rating: 98
Barnyardgrass [2]; [5]
  Barnyardgrass plant response rating: 100
Barnyardgrass [2]; [6]
  Barnyardgrass plant response rating: 100
Barnyardgrass [2]; 13 to 15 days
  Plant response rating, Barnyardgrass: 100
Barnyardgrass [2]; [7]
  Barnyardgrass plant response rating: 100
ryegrass, Italian; [8]
  Plant response rating, Ryegrass, Italian: 60
ryegrass, Italian; [9]
  Plant response rating, Ryegrass, Italian: 10
corn
  Plant response rating (scale of 0 to 100 where 0 is no effect and 100 is complete control), Corn: 5
  Corn plant response rating: 40
corn; [8]
  Plant response rating, Corn: 65
corn; [9]
  Plant response rating, Corn: 75
crabgrass, large
  Plant response rating (scale of 0 to 100 where 0 is no effect and 100 is complete control), Crabgrass, Large: 5
  Crabgrass, Large plant response rating: 5
crabgrass, large; [8]
  Plant response rating, Crabgrass, Large: 80
crabgrass, large; [9]
  Plant response rating, Crabgrass, Large: 20
pigweed
  Pigweed plant response rating: 70
pigweed; [8]
  Plant response rating, Pigweed: 85
pigweed; [9]
  Plant response rating, Pigweed: 85
chickweed
  Plant response rating (scale of 0 to 100 where 0 is no effect and 100 is complete control), Chickweed: 70
  Chickweed plant response rating: 80
chickweed; [8]
  Plant response rating, Chickweed: 100
chickweed; [9]
  Plant response rating, Chickweed: 85

## CCOc1cc(C(=O)NOC(C)C)nn1Cc1ccnc(C(F)(F)F)c1 [Compound 153]
morningglory
  Morningglory plant response rating (0 to 100 scale): 100
  Morningglory plant response rating: 100
Barnyardgrass [1]; [3]
  Barnyardgrass plant response rating: 100
Barnyardgrass [1]; [4]
  Barnyardgrass plant response rating: 100
ducksalad
  Plant response rating, Ducksalad: 90
blackgrass; [5]
  Blackgrass plant response rating: 80
blackgrass; [6]
  Blackgrass plant response rating: 90
blackgrass; 13 to 15 days
  Plant response rating, Blackgrass: 90
blackgrass; [7]
  Blackgrass plant response rating: 90
johnsongrass; [5]
  Johnsongrass plant response rating: 5
johnsongrass; [6]
  Johnsongrass plant response rating: 35
johnsongrass; 13 to 15 days
  Plant response rating, Johnsongrass: 75
johnsongrass; [7]
  Johnsongrass plant response rating: 95
lambsquarters; [5]
  Lambsquarters plant response rating: 85
lambsquarters; [6]
  Lambsquarters plant response rating: 98
lambsquarters; 13 to 15 days
  Plant response rating, Lambsquarters: 98
lambsquarters; [7]
  Lambsquarters plant response rating: 100
soybean; [5]
  Soybean plant response rating: 5
soybean; [6]
  Soybean plant response rating: 10
soybean; 13 to 15 days
  Plant response rating, Soybean: 45
soybean; [7]
  Soybean plant response rating: 80
Barnyardgrass [2]; [5]
  Barnyardgrass plant response rating: 15
Barnyardgrass [2]; [6]
  Barnyardgrass plant response rating: 95
Barnyardgrass [2]; 13 to 15 days
  Plant response rating, Barnyardgrass: 100
Barnyardgrass [2]; [7]
  Barnyardgrass plant response rating: 100
ryegrass, Italian; [8]
  Plant response rating, Ryegrass, Italian: 5
ryegrass, Italian; [9]
  Plant response rating, Ryegrass, Italian: 5
corn
  Plant response rating (scale of 0 to 100 where 0 is no effect and 100 is complete control), Corn: 5
  Corn plant response rating: 10
corn; [8]
  Plant response rating, Corn: 20
corn; [9]
  Plant response rating, Corn: 30
crabgrass, large
  Plant response rating (scale of 0 to 100 where 0 is no effect and 100 is complete control), Crabgrass, Large: 5
  Crabgrass, Large plant response rating: 10
crabgrass, large; [8]
  Plant response rating, Crabgrass, Large: 45
crabgrass, large; [9]
  Plant response rating, Crabgrass, Large: 15
pigweed
  Pigweed plant response rating: 25
pigweed; [8]
  Plant response rating, Pigweed: 80
pigweed; [9]
  Plant response rating, Pigweed: 25
chickweed
  Plant response rating (scale of 0 to 100 where 0 is no effect and 100 is complete control), Chickweed: 50
  Chickweed plant response rating: 70
chickweed; [8]
  Plant response rating, Chickweed: 80
chickweed; [9]
  Plant response rating, Chickweed: 70
